Data from US20220348584A1, “PERK INHIBITING INDOLINYL COMPOUNDS” (HiberCell, Inc., priority 2019, published 2022).
Like-named read-outs stand apart in the source and are kept apart here.

How the values were obtained:
[1] = biological target: T1, EIF2AK3 (PERK) catalytic domain (amino acids 536-1116) (Homo sapiens, UniProt Q9NZJ5); assay: PERK In Vitro Activity Assay (Isolated), TR-FRET kinase assay; format: biochemical; conditions: isolated PERK enzyme, 1.5 μM ATP
T1 construct: EIF2AK3 (PERK) catalytic domain (amino acids 536-1116); purchased Invitrogen, Carlsbad, Calif
T1 sequence (Q9NZJ5 536-1116): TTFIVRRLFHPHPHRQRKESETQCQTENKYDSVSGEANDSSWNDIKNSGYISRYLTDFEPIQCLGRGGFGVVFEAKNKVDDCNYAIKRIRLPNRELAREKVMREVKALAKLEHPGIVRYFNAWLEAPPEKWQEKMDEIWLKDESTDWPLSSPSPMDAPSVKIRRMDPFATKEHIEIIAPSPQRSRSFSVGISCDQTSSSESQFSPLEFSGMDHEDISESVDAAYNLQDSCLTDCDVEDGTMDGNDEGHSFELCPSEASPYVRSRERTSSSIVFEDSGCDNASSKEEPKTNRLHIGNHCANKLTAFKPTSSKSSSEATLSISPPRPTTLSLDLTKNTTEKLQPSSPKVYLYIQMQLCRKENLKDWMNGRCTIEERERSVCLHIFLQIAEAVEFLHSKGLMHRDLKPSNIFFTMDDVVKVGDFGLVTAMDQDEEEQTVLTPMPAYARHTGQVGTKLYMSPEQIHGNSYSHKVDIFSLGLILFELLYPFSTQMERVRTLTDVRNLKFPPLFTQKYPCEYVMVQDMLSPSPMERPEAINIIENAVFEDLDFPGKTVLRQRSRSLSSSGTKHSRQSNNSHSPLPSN
Description: Perform TR-FRET kinase assays in the absence or presence of inhibitors in a reaction buffer consisting of 50 mM HEPES, pH 7.5, 10 mM MgCb, 1.0 mM EGTA, and 0.01% Brij-35, and 100-200 nM GFP-eIF2a substrate. […] Add test compound, initiate the reaction by addition of enzyme, and incubate at room temperature for 45 minutes. Stop the reaction by addition of EDTA to a final concentration of 10 mM, add Terbium-labelled phospho-eIF2a antibody at a final concentration of 2 nM, and incubate for 90 minutes. Monitor the resulting fluorescence in an EnVison® Multilabel reader (PerkinElmer, Waltham, Mass.).

HEK293-EGFP-eIF2a cells = assay: PERK Cellular Assay (TR-FRET, GFP-eIF2α, tunicamycin-induced ER stress); format: cell-based, human
Description: Stable cell lines were created in HEK293 cells using lentiviral particles harboring an expression vector for GFP-eIF2α. Cells were selected using puromycin and enriched using fluorescence activated cell sorting against GFP. HEK293-EGFP-eIF2a cells were plated at 5000 cells/well in 384-well assay plates and incubated overnight at 37° C., 5% CO2. Inhibitor compounds were added to the wells by Echo acoustic dispensing and incubated for 30 minutes at 37° C., 5% CO2 prior to induction of ER stress by addition of tunicamycin to […] for 2 hours. Cells were lysed and TR-FRET was measured in an EnVision plate reader (PerkinElmer). FRET ratio data was normalized to signal from lysates treated with DMSO vehicle control and plotted as percent inhibition against 10-point; 3-fold dilution series of inhibitors. IC50 values were calculated using 4-parameter logistical fitting in XLFit.

[2] = Homo sapiens, 2 h, HEK293-EGFP-eIF2a cells, tunicamycin 2 hours, TR-FRET, read-out: Cellular eIF2α IC50
[3] = HEK293-EGFP-eIF2a cells, tunicamycin 2 hours, TR-FRET, read-out: Cellular eIF2α IC50

Cc1nc(N)c2c(-c3ccc4c(c3F)CCN4C(=O)C(O)c3ccccc3)cn(C)c2n1 (racemic) [Example 5, 1-(5-(4-amino-2,7-dimethyl-7H-pyrrolo[2,3-d]pyrimidin-5-yl)-4-fluoroindolin-1-yl)-2-hydroxy-2-phenylethanone]
IC50 ([1]; read-out: Biochemical IC50): 0.026 to 0.05 µM

Cc1nc(N)c2c(-c3ccc4c(c3F)CCN4C(=O)C(O)c3cccc(F)c3)cn(C)c2n1 (racemic) [Example 9, 1-(5-(4-amino-2,7-dimethyl-7H-pyrrolo[2,3-d]pyrimidin-5-yl)-4-fluoroindolin-1-yl)-2-(3-fluorophenyl)-2-hydroxyethanone]
IC50 (HEK293-EGFP-eIF2a cells; [2]): 0.051 to 0.1 µM

Cc1nc(N)c2c(-c3ccc4c(c3F)CCN4C(=O)C(O)c3cc(F)cc(F)c3)cn(C)c2n1 (racemic) [Example 10, 1-(5-(4-amino-2,7-dimethyl-7H-pyrrolo[2,3-d]pyrimidin-5-yl)-4-fluoroindolin-1-yl)-2-(3,5-difluorophenyl)-2-hydroxyethanone]
IC50 ([1]; read-out: Biochemical IC50): 0.001 to 0.025 µM | IC50 (HEK293-EGFP-eIF2a cells; [2]): 0.001 to 0.025 µM

Cn1cc(-c2ccc3c(c2F)CCN3C(=O)C(O)c2ccccc2)c2c(N)ncnc21 (single isomer, unassigned) [Example 1, 1-(5-(4-amino-7-methyl-7H-pyrrolo[2,3-d]pyrimidin-5-yl)-4-fluoroindolin-1-yl)-2-hydroxy-2-phenylethanone]
IC50 ([1]; read-out: Biochemical IC50): 0.001 to 0.025 µM | IC50 (HEK293-EGFP-eIF2a cells; [3]): 0.001 to 0.025 µM

Cn1cc(-c2ccc3c(c2F)CCN3C(=O)C(O)c2ccccc2)c2c(N)ncnc21 (single isomer, unassigned) [Example 2, 1-(5-(4-amino-7-methyl-7H-pyrrolo[2,3-d]pyrimidin-5-yl)-4-fluoroindolin-1-yl)-2-hydroxy-2-phenylethanone]
IC50 ([1]; read-out: Biochemical IC50): 0.051 to 0.1 µM | IC50 (HEK293-EGFP-eIF2a cells; [3]): 0.101 to 0.25 µM

Cn1cc(-c2ccc3c(c2F)CCN3C(=O)C(N)c2ccccc2)c2c(N)ncnc21 (single isomer, unassigned) [Example 3, 2-amino-1-(5-(4-amino-7-methyl-7H-pyrrolo[2,3-d]pyrimidin-5-yl)-4-fluoroindolin-1-yl)-2-phenylethanone]
IC50 ([1]; read-out: Biochemical IC50): 0.051 to 0.1 µM | IC50 (HEK293-EGFP-eIF2a cells; [2]): 0.051 to 0.1 µM

Cn1cc(-c2ccc3c(c2F)CCN3C(=O)C(N)c2ccccc2)c2c(N)ncnc21 (single isomer, unassigned) [Example 4, 2-amino-1-(5-(4-amino-7-methyl-7H-pyrrolo[2,3-d]pyrimidin-5-yl)-4-fluoroindolin-1-yl)-2-phenylethanone]
IC50 ([1]; read-out: Biochemical IC50): 0.101 to 0.25 µM | IC50 (HEK293-EGFP-eIF2a cells; [3]): 0.051 to 0.1 µM

CC(C)NC(=O)c1cc(-c2ccc3c(c2F)CCN3C(=O)C(O)c2cc(F)cc(F)c2)cnc1N (single isomer, unassigned) [Example 6, 2-amino-5-(1-(2-(3,5-difluorophenyl)-2-hydroxyacetyl)-4-fluoroindolin-5-yl)-N-isopropylnicotinamide]
IC50 ([1]; read-out: Biochemical IC50): 0.101 to 0.25 µM | IC50 (HEK293-EGFP-eIF2a cells; [3]): 0.251 to 0.5 µM

CC(C)NC(=O)c1cc(-c2ccc3c(c2F)CCN3C(=O)C(O)c2cc(F)cc(F)c2)cnc1N (single isomer, unassigned) [Example 7, 2-amino-5-(1-(2-(3,5-difluorophenyl)-2-hydroxyacetyl)-4-fluoroindolin-5-yl)-N-isopropylnicotinamide]
IC50 ([1]; read-out: Biochemical IC50): 0.051 to 0.1 µM | IC50 (HEK293-EGFP-eIF2a cells; [3]): 0.101 to 0.25 µM

Cc1cn2c(C3CC(C)(O)C3)nc(-c3ccc4c(c3F)CCN4C(=O)C(O)c3cccc(F)c3)c2c(N)n1 (single isomer, unassigned) [Example 13, 1-(5-(8-amino-3-(3-hydroxy-3-methylcyclobutyl)-6-methylimidazo[1,5-a]pyrazin-1-yl)-4-fluoroindolin-1-yl)-2-(3-fluorophenyl)-2-hydroxyethanone]
IC50 ([1]; read-out: Biochemical IC50): 0.026 to 0.05 µM | IC50 (HEK293-EGFP-eIF2a cells; [3]): 0.251 to 0.5 µM

Cc1cn2c(C3CC(C)(O)C3)nc(-c3ccc4c(c3F)CCN4C(=O)C(O)c3cccc(F)c3)c2c(N)n1 (single isomer, unassigned) [Example 14, 1-(5-(8-amino-3-(3-hydroxy-3-methylcyclobutyl)-6-methylimidazo[1,5-a]pyrazin-1-yl)-4-fluoroindolin-1-yl)-2-(3-fluorophenyl)-2-hydroxyethanone]
IC50 ([1]; read-out: Biochemical IC50): 0.001 to 0.025 µM | IC50 (HEK293-EGFP-eIF2a cells; [3]): 0.051 to 0.1 µM

Cc1cccc(C(O)C(=O)N2CCc3c2ccc(-c2nc(C4CC(C)(O)C4)n4cc(C)nc(N)c24)c3F)n1 (single isomer, unassigned) [Example 17, 1-(5-(8-amino-3-(3-hydroxy-3-methylcyclobutyl)-6-methylimidazo[1,5-a]pyrazin-1-yl)-4-fluoroindolin-1-yl)-2-hydroxy-2-(6-methylpyridin-2-yl)ethanone]
IC50 ([1]; read-out: Biochemical IC50): 0.051 to 0.1 µM | IC50 (HEK293-EGFP-eIF2a cells; [2]): > 5 µM

Cc1cccc(C(O)C(=O)N2CCc3c2ccc(-c2nc(C4CC(C)(O)C4)n4cc(C)nc(N)c24)c3F)n1 (single isomer, unassigned) [Example 18, 1-(5-(8-amino-3-(3-hydroxy-3-methylcyclobutyl)-6-methylimidazo[1,5-a]pyrazin-1-yl)-4-fluoroindolin-1-yl)-2-hydroxy-2-(6-methylpyridin-2-yl)ethanone]
IC50 ([1]; read-out: Biochemical IC50): 0.051 to 0.1 µM | IC50 (HEK293-EGFP-eIF2a cells; [3]): 3 to 4 µM

Cc1nc(N)c2c(-c3ccc4c(c3)CCN4C(=O)C(O)c3cc(F)cc(C(F)(F)F)c3)cn(C)c2n1 (single isomer, unassigned) [Example 19, 1-(5-(4-amino-2,7-dimethyl-7H-pyrrolo[2,3-d]pyrimidin-5-yl)indolin-1-yl)-2-(3-fluoro-5-(trifluoromethyl)phenyl)-2-hydroxyethanone]
IC50 ([1]; read-out: Biochemical IC50): 0.001 to 0.025 µM | IC50 (HEK293-EGFP-eIF2a cells; [3]): 0.101 to 0.25 µM

Cc1nc(N)c2c(-c3ccc4c(c3)CCN4C(=O)C(O)c3cc(F)cc(C(F)(F)F)c3)cn(C)c2n1 (single isomer, unassigned) [Example 20, 1-(5-(4-amino-2,7-dimethyl-7H-pyrrolo[2,3-d]pyrimidin-5-yl)indolin-1-yl)-2-(3-fluoro-5-(trifluoromethyl)phenyl)-2-hydroxyethanone]
IC50 ([1]; read-out: Biochemical IC50): 0.026 to 0.05 µM | IC50 (HEK293-EGFP-eIF2a cells; [3]): 0.026 to 0.05 µM

Cc1cccc(CC(=O)N2CCc3c2ccc(-c2cn(C)c4nc(C)nc(N)c24)c3F)n1 [Example 21, 1-(5-(4-amino-2,7-dimethyl-7H-pyrrolo[2,3-d]pyrimidin-5-yl)-4-fluoroindolin-1-yl)-2-(6-methylpyridin-2-yl)ethanone]
IC50 ([1]; read-out: Biochemical IC50): 0.001 to 0.025 µM | IC50 (HEK293-EGFP-eIF2a cells; [2]): 0.026 to 0.05 µM

Cn1cc(-c2ccc3c(c2F)CCN3C(=O)Cc2cccc(C(F)(F)F)n2)c2c(N)ncnc21 [Example 22, 1-(5-(4-amino-7-methyl-7H-pyrrolo[2,3-d]pyrimidin-5-yl)-4-fluoroindolin-1-yl)-2-(6-(trifluoromethyl)pyridin-2-yl)ethanone]
IC50 ([1]; Biochemical IC50 (μM)): 0.001 to 0.025 µM | IC50 (HEK293-EGFP-eIF2a cells; Homo sapiens, 2 h, read-out: Cellular eIF2α IC50 (μM)): 0.001 to 0.025 µM

Cc1cccc(CC(=O)N2CCc3c2ccc(-c2nc(C)n4ccnc(N)c24)c3F)n1 [Example 23, 1-(5-(8-amino-3-methylimidazo[1,5-a]pyrazin-1-yl)-4-fluoroindolin-1-yl)-2-(6-methylpyridin-2-yl)ethanone]
IC50 ([1]; read-out: Biochemical IC50): 0.026 to 0.05 µM | IC50 (HEK293-EGFP-eIF2a cells; [2]): 0.026 to 0.05 µM

Cc1cccc(CC(=O)N2CCc3c2ccc(-c2nc(C)n4c(C)cnc(N)c24)c3F)n1 [Example 24, 1-(5-(8-amino-3,5-dimethylimidazo[1,5-a]pyrazin-1-yl)-4-fluoroindolin-1-yl)-2-(6-methylpyridin-2-yl)ethanone]
IC50 ([1]; read-out: Biochemical IC50): 0.051 to 0.1 µM | IC50 (HEK293-EGFP-eIF2a cells; [2]): 0.026 to 0.05 µM

CCc1cnc(N)c2c(-c3ccc4c(c3F)CCN4C(=O)Cc3cccc(C)n3)nc(C)n12 [Example 25, 1-(5-(8-amino-5-ethyl-3-methylimidazo[1,5-a]pyrazin-1-yl)-4-fluoroindolin-1-yl)-2-(6-methylpyridin-2-yl)ethanone]
IC50 ([1]; read-out: Biochemical IC50): 0.051 to 0.1 µM | IC50 (HEK293-EGFP-eIF2a cells; [2]): 0.051 to 0.1 µM
